Assay [1] has as its system MPTP-treated mice. Kind of assay: Spontaneous locomotor activity in MPTP-treated mice (Parkinson's disease model). Conditions: MPTP 40 mg/kg x 2 mice, compound (IX) alone 3 mg/kg p.o., P < 0.05 vs MPTP-treated control group. In kind it is in vivo, C57BL/6 mice (male). The protocol: Mice injected with a dopaminergic toxin, MPTP were used as a model for Parkinson's disease and the effects of single administration of compound (IX) on the reduction of the spontaneous locomotor activity caused by MPTP-treatment were examined.
MPTP (40 mg/kg, i.p., saline) was injected twice at 24-hr intervals to C57BL/6 mice (male), and the day after the last administration, the mice were placed in locomotor activity measuring apparatus. After 30 min, compound (IX) alone (0.3, 1, 3 mg/kg, p.o.) was administered.

In assay [2] the test system is reserpine-induced cataleptic posture. Kind of assay: Catalepsy test in mice pre-treated with reserpine. Conditions: 1 hour after administration. In kind it is in vivo, ddy mice (male). The protocol: The effects of compound (IX) in single administration and in combination with L-DOPA on cataleptic responses were examined in mice pre-treated with a monoamine-depleting drug, reserpine. Reserpine (5 mg/kg, i.p., Apoplon Inj, Daiichi Pharmaceutical) was administrated to ddy mice (male). On the next day, compound (IX) (0.3, 1, 3 mg/kg, p.o.) with or without L-DOPA (25, 100 mg/kg, i.p., dissolved in 0.1N HCl and diluted with distilled water for injection (Otsuka Pharmaceutical)) was administrated to the mice and catalepsy test was performed after 1 hour. When L-DOPA was administrated, mice were pre-treated with carbidopa (25 mg/kg, i.p., 0.5% lactic acid) before 30 min. The forelimbs or hindlimbs of each mouse were placed on a 4.5 cm high horizontal bar and the time was measured (cut off time 30 sec) until both legs reach the floor. The cataleptic responses were scored as follows (less than 5 sec.: 0 point, 5 sec. to less than 10 sec.: 1 point, 10 sec to less than 15 sec.: 2 points, 15 sec. to than 20 sec.: 3 points, 20 sec. to less than 25 sec.: 4 points, 25 sec. to less than 30 sec.: 5 points, 30 sec. or more: 6 points). For forelimbs, the scores for 3 repetitive tests were summated. For hindlimbs, the tests were performed 5 times and of which 3 scores were summated excluding the highest and lowest scores. The catalepsy scores were calculated as the total scores for forelimbs and hindlimbs.

Assay [3] deals with 6-OHDA-treated mice. Briefly: Spontaneous locomotor activity in mice injected intracerebroventricularly with 6-OHDA (Parkinson's disease model). It is filed as in vivo, C57BL/6 mice (male). To be noted: 6-OHDA mice. The protocol:
Mice injected intracerebroventricularly with a monoaminergic toxin, 6-OHDA were used as a model for Parkinson's disease.
To C57BL/6 mice (male) were administrated desipramine (desipramine (25 mg/kg, i.p., 0.5%), lactic acid) and 6-OHDA (40 μg/μl/mouse, 0.2% ascorbic acid) was injected in the cerebroventricule after 30 min. The mice were placed in the locomotor activity measuring apparatus after one day. Compound (IX) (0.3, 1 mg/kg), with or without L-DOPA (10 mg/kg, i.p., dissolved in 0.1N HCl and diluted with distilled water or injection, Otsuka Pharmaceutical), was administrated after 90 min, then the spontaneous locomotor activity was measured for 5 hours. When L-DOPA was administrated, mice were pre-treated with carbidopa (25 mg/kg, i.p., 0.5% lactic acid) before 30 min.

The subject of assay [4] is normal mice. Kind of assay: Spontaneous locomotor activity after oral administration to normal mice (SCANET apparatus). It is filed as in vivo, C57BL/6 mice (male). To be noted: p.o. The protocol: The enhancing effects of compound (IX) on the spontaneous locomotor activity were examined in normal mice.
Compound (IX) was orally administrated to C57BL/6 mice (male) and the spontaneous locomotor activity was measured with a locomotor activity measuring apparatus (SCANET, TOYO sangyo). Mice were familiarized to the cage of the apparatus for at least 60 min. Compound (IX) (1,3,10 mg/kg) or vehicle (vehicle, distilled water Otsuka) was administrated orally. The spontaneous locomotor activity was measured for 5 hours after the mice were returned to the cage.

Bounds are passed on as bounds.

For `C[C@@H]1OC(=O)N[C@@H]1C(=O)NC(Cc1cscn1)C(=O)N1CCC[C@H]1C` (stereo in doubt) [Compound (IX)], the “spontaneous locomotor activity, Total” value is 5463 ± 700 in assay [1]; “significantly increased” in assay [1] (listed as compound (IX)); 14468 ± 3618 in assay [3] (compound (IX) 1 mg/kg p.o. in combination with L-DOPA 10 mg/kg i.p. (carbidopa pre-treatment), 5 hours, P < 0.01 vs 6-OHDA-treated group); “significant and remarkable increase” in assay [3] (compound (IX) 1 mg/kg p.o. in combination with L-DOPA 10 mg/kg i.p. (carbidopa pre-treatment), 5 hours, P < 0.01 vs 6-OHDA-treated group, listed as compound (IX)); 2512 ± 333 in assay [3] (compound (IX) 1 mg/kg p.o. in single administration, measured for 5 hours, 1 mg/kg); “did not show significant increase” in assay [3] (compound (IX) 1 mg/kg p.o. in single administration, measured for 5 hours, listed as compound (IX), 1 mg/kg). In addition, the “catalepsy score, mean” value in assay [2] (compound (IX) 1 mg/kg p.o. + L-DOPA 100 mg/kg i.p.) was 2.3; in assay [2] (compound (IX) 1 mg/kg p.o. + L-DOPA 100 mg/kg i.p., listed as compound (IX)), “significant depression effect”; in assay [2] (compound (IX) 3 mg/kg p.o. + L-DOPA 100 mg/kg i.p.), 9.2; in assay [2] (compound (IX) 3 mg/kg p.o. + L-DOPA 100 mg/kg i.p., listed as compound (IX)), “significant depression effect”. Further, in assay [4], the “dose at which the spontaneous locomotor activity was increased” value was not below 3 mg/kg.

Values taken from patent US20030191120A1, “Antiparkinsonism drugs” (priority 2000, published 2003).
